Drawing on PubChem BioAssay AID1259407 (Chemical Carcinogenesis Research Information System (CCRIS), 2018), this text covers mutagenic call for five compounds.

Activity calls are given as the source filed them. The rule behind the calls is not given here.

The subject of this data set is CCRIS mutagenicity, Ames/micronucleus/aberration tests. The data set is described as follows: CCRIS mutagenicity studies.
[1] abbreviates: Test System: AMES SALMONELLA TYPHIMURIUM, Strain/Indicator: TA98, Metabolic Activation: NONE, Method: STANDARD PLATE.
The mark [2] stands for this setting: Test System: AMES SALMONELLA TYPHIMURIUM, Strain/Indicator: TA100, Metabolic Activation: NONE, Method: STANDARD PLATE.

On to `COC1=CC(=O)c2c(ncc3c4c([nH]c23)CCCC4)C1=O`, for which the mutagenic call runs as follows: (Test System: AMES SALMONELLA TYPHIMURIUM, Strain/Indicator: TA97A, Metabolic Activation: NONE, Method: STANDARD PLATE) “active; positive”; (Test System: AMES SALMONELLA TYPHIMURIUM, Strain/Indicator: TA97A, Metabolic Activation: RAT LIVER S-9, AROCLOR 1254, Method: STANDARD PLATE) “active; positive”; under setting [1], “active; positive”; (Test System: AMES SALMONELLA TYPHIMURIUM, Strain/Indicator: TA98, Metabolic Activation: RAT LIVER S-9, AROCLOR 1254, Method: STANDARD PLATE) “active; positive”; under setting [2], “active; positive”; (Test System: AMES SALMONELLA TYPHIMURIUM, Strain/Indicator: TA100, Metabolic Activation: RAT LIVER S-9, AROCLOR 1254, Method: STANDARD PLATE) “active; positive”. The mutagenic call by setting is: (Test System: AMES SALMONELLA TYPHIMURIUM, Strain/Indicator: TA102, Metabolic Activation: NONE, Method: STANDARD PLATE) “inactive; negative”; (Test System: AMES SALMONELLA TYPHIMURIUM, Strain/Indicator: TA102, Metabolic Activation: RAT LIVER S-9, AROCLOR 1254, Method: STANDARD PLATE) “inactive; negative”.
`CCN(O)CC`: under “Test System: UDS HUMAN LYMPHOCYTES, Strain/Indicator: THY INCORP (NON-S-PHASE), Metabolic Activation: NONE, Method: LIQUID SCINTILLATION COUNTING”, the mutagenic call was “active; positive”.
Consider `CC(O)CN(CC(C)O)N=O` (stereo unspecified), for which the mutagenic call is “inactive; negative” (Test System: AMES SALMONELLA TYPHIMURIUM, Strain/Indicator: TA100, Metabolic Activation: HAMSTER, LIVER, S-9, 3-METHYLCHOLANTHRENE, Method: PREINCUBATION); “active; positive” (Test System: AMES SALMONELLA TYPHIMURIUM, Strain/Indicator: TA100, Metabolic Activation: HAMSTER, LIVER, S-9, PHENOBARBITAL, Method: PREINCUBATION); “inactive; negative” (Test System: AMES SALMONELLA TYPHIMURIUM, Strain/Indicator: TA100, Metabolic Activation: HAMSTER, LIVER, S-9, Method: PREINCUBATION); “inactive; negative” (Test System: AMES SALMONELLA TYPHIMURIUM, Strain/Indicator: TA100, Metabolic Activation: HUMAN, LIVER, S-9, Method: PREINCUBATION); “inactive; negative” (Test System: AMES SALMONELLA TYPHIMURIUM, Strain/Indicator: TA100, Metabolic Activation: MONKEY, LIVER, S-9, Method: PREINCUBATION); “inactive; negative” (Test System: AMES SALMONELLA TYPHIMURIUM, Strain/Indicator: TA100, Metabolic Activation: MOUSE, LIVER, S-9, 3-METHYLCHOLANTHRENE, Method: PREINCUBATION). The mutagenic call was “active; positive” (Test System: AMES SALMONELLA TYPHIMURIUM, Strain/Indicator: TA100, Metabolic Activation: MOUSE, LIVER, S-9, PHENOBARBITAL, Method: PREINCUBATION); “inactive; negative” (Test System: AMES SALMONELLA TYPHIMURIUM, Strain/Indicator: TA100, Metabolic Activation: MOUSE, LIVER, S-9, Method: PREINCUBATION); “inactive; negative” (Test System: AMES SALMONELLA TYPHIMURIUM, Strain/Indicator: TA100, Metabolic Activation: NONE, Method: PREINCUBATION); “inactive; negative” (Test System: AMES SALMONELLA TYPHIMURIUM, Strain/Indicator: TA100, Metabolic Activation: RABBIT, LIVER, S-9, Method: PREINCUBATION); “inactive; negative” (Test System: AMES SALMONELLA TYPHIMURIUM, Strain/Indicator: TA100, Metabolic Activation: RAT, LIVER, CYTOSOL, PCB, Method: PREINCUBATION); “active; positive” (Test System: AMES SALMONELLA TYPHIMURIUM, Strain/Indicator: TA100, Metabolic Activation: RAT, LIVER, MICROSOMES AND CYTOSOL, PCB, Method: PREINCUBATION). For the same compound, the mutagenic call runs as follows: (Test System: AMES SALMONELLA TYPHIMURIUM, Strain/Indicator: TA100, Metabolic Activation: RAT, LIVER, MICROSOMES AND G6PDH, PCB, Method: PREINCUBATION) “active; positive”; (Test System: AMES SALMONELLA TYPHIMURIUM, Strain/Indicator: TA100, Metabolic Activation: RAT, LIVER, MICROSOMES, PCB, Method: PREINCUBATION) “inactive; negative”; (Test System: AMES SALMONELLA TYPHIMURIUM, Strain/Indicator: TA100, Metabolic Activation: RAT, LIVER, S-9 (HEATED), PCB, Method: PREINCUBATION) “inactive; negative”; (Test System: AMES SALMONELLA TYPHIMURIUM, Strain/Indicator: TA100, Metabolic Activation: RAT, LIVER, S-9 (WITHOUT NADP+), PCB, Method: PREINCUBATION) “inactive; negative”; (Test System: AMES SALMONELLA TYPHIMURIUM, Strain/Indicator: TA100, Metabolic Activation: RAT, LIVER, S-9, 3-METHYLCHOLANTHRENE, Method: PREINCUBATION) “inactive; negative”; (Test System: AMES SALMONELLA TYPHIMURIUM, Strain/Indicator: TA100, Metabolic Activation: RAT, LIVER, S-9, AROCLOR 1254, Method: PREINCUBATION) “active; positive”. Also, the mutagenic call is “active; positive” (Test System: AMES SALMONELLA TYPHIMURIUM, Strain/Indicator: TA100, Metabolic Activation: RAT, LIVER, S-9, PCB, Method: PREINCUBATION); “active; positive” (Test System: AMES SALMONELLA TYPHIMURIUM, Strain/Indicator: TA100, Metabolic Activation: RAT, LIVER, S-9, PHENOBARBITAL, Method: PREINCUBATION); “inactive; negative” (Test System: AMES SALMONELLA TYPHIMURIUM, Strain/Indicator: TA100, Metabolic Activation: RAT, LIVER, S-9, Method: PREINCUBATION); “active; positive” (Test System: AMES SALMONELLA TYPHIMURIUM, Strain/Indicator: TA100, Method: PREINCUBATION); “inactive; negative” (Test System: AMES SALMONELLA TYPHIMURIUM, Strain/Indicator: TA104, Metabolic Activation: RAT, LIVER, S-9, AROCLOR 1254, Method: PREINCUBATION); “active; positive” (Test System: AMES SALMONELLA TYPHIMURIUM, Strain/Indicator: TA1535, Metabolic Activation: RAT, LIVER, S-9, AROCLOR 1254, Method: PREINCUBATION). The mutagenic call by setting is: (Test System: AMES SALMONELLA TYPHIMURIUM, Strain/Indicator: TA1975, Metabolic Activation: RAT, LIVER, S-9, AROCLOR 1254, Method: PREINCUBATION) “active; positive”; (Test System: CHINESE HAMSTER V-79, Strain/Indicator: V-79/OUABAIN, Metabolic Activation: HAMSTER, HEPATOCYTES, Method: CELL-MEDIATED) “active; positive”.
Regarding `C[C@H](CCC(=O)O)[C@H]1CC[C@H]2[C@@H]3CC[C@@H]4C[C@H](O)CC[C@]4(C)[C@H]3CC(=O)[C@]12C`, the mutagenic call is, setting by setting: (Test System: AMES SALMONELLA TYPHIMURIUM, Strain/Indicator: TA98, Metabolic Activation: NONE, Method: FLUCTUATION TEST) “inactive; negative”; (Test System: AMES SALMONELLA TYPHIMURIUM, Strain/Indicator: TA98, Metabolic Activation: NONE, Method: PREINCUBATION) “inactive; negative”; (Test System: AMES SALMONELLA TYPHIMURIUM, Strain/Indicator: TA98, Metabolic Activation: RAT, LIVER, S-9, PCB, Method: PREINCUBATION) “inactive; negative”; (Test System: AMES SALMONELLA TYPHIMURIUM, Strain/Indicator: TA100, Metabolic Activation: NONE, Method: FLUCTUATION TEST) “inactive; negative”.
With `Cc1ccccc1NC(=O)c1csc([N+](=O)[O-])c1`, the mutagenic call runs as follows: under setting [1], “active; positive”; under setting [2], “active; positive”.
